From publication PMC9516332 (Frontiers in Oncology, 2022)
Read-outs that look alike come from different tables or passages of the source.

What was measured:
134 cancer cell lines = assay: Cell viability assay (ATPlite, 72 hours), IC50 on cancer cell line panel
AP-1060 (ETV6-NTRK3) = assay: Cell viability assay; details: read-out: IC50 in cell proliferation assay
[1] = target: panel of 255 wild-type kinases (Homo sapiens, UniProt Q13177); assay: Kinase panel profiling at 1 µmol/L (MSA or IMAP), percentage inhibition; assay type: biochemical; details: PAK2; 1 µmol/L single concentration; read-out: %-inhibition, PAK2
[2] = target: panel of 255 wild-type kinases (Homo sapiens, UniProt Q96RG2); assay: as above; assay type: biochemical; details: PASK; 1 µmol/L single concentration; read-out: %-inhibition, PASK
[3] = target: panel of 255 wild-type kinases (Homo sapiens, UniProt P50613); assay: as above; assay type: biochemical; details: CDK7/CycH/MAT1 kinase assay; 1 µmol/L single concentration; read-out: %-inhibition CDK7/CycH/MAT1
[4] = target: panel of 255 wild-type kinases (Homo sapiens, UniProt Q9HBH9); assay: as above; assay type: biochemical; details: MNK2; 1 µmol/L single concentration; read-out: %-inhibition, MNK2
[5] = target: panel of 255 wild-type kinases (Homo sapiens, UniProt P22607); assay: as above; assay type: biochemical; details: kinase FGFR3; 1 µmol/L single concentration; read-out: %-inhibition at 1 µmol/L, FGFR3
[6] = target: panel of 255 wild-type kinases (Homo sapiens, UniProt O75582); assay: as above; assay type: biochemical; details: MSK1; 1 µmol/L single concentration; read-out: %-inhibition, MSK1
[7] = target: panel of 255 wild-type kinases (Homo sapiens, UniProt P49760); assay: as above; assay type: biochemical; details: kinase CLK2; 1 µmol/L single concentration; read-out: %-inhibition at 1 µmol/L, CLK2
[8] = target: panel of 255 wild-type kinases (Homo sapiens, UniProt Q00526); assay: as above; assay type: biochemical; details: CDK3/CycE1 kinase assay; 1 µmol/L single concentration; read-out: %-inhibition CDK3/CycE1
[9] = target: panel of 255 wild-type kinases (Homo sapiens, UniProt P45983); assay: as above; assay type: biochemical; details: kinase JNK1; 1 µmol/L single concentration; read-out: %-inhibition at 1 µmol/L, JNK1

`COc1cc2ncnc(Nc3ccc(F)c(Cl)c3)c2cc1NC(=O)/C=C/CN1CCCCC1` [dacomitinib] showed an IC50 (134 cancer cell lines; Homo sapiens, NCI-H460, read-out: IC50 in cell proliferation assay, NCI-H460 cell line) of 4.69 µM, an IC50 (134 cancer cell lines; Homo sapiens, NCI-H661, read-out: IC50 in cell proliferation assay, NCI-H661 cell line) of 3.68 µM and an IC50 (134 cancer cell lines; Homo sapiens, NCI-H716, read-out: IC50 in cell proliferation assay, cell line NCI-H716 (FGFR2-COL14A1)) of 4.91 µM. For the same compound, the IC50 (134 cancer cell lines; Homo sapiens, NCI-H1650, read-out: IC50 in cell proliferation assay, NCI-H1650 cell line (EGFR exon19del)) was 0.006 µM, the IC50 (134 cancer cell lines; Homo sapiens, NCI-H1975, read-out: IC50 in cell proliferation assay, NCI-H1975 cell line (EGFR p.L858R + p.T790M)) was 0.153 µM and the IC50 (134 cancer cell lines; Homo sapiens, NCI-H2228, read-out: IC50 in cell proliferation assay, NCI-H2228 cell line (EML4-ALK)) was 4.89 µM. The IC50 (134 cancer cell lines; Homo sapiens, OVCAR-3, read-out: IC50 in cell proliferation assay, cell line OVCAR-3) was 0.023 µM, the IC50 (134 cancer cell lines; Homo sapiens, PFSK-1, read-out: IC50 in cell proliferation assay, cell line PFSK-1) was 4.48 µM and the IC50 (134 cancer cell lines; Homo sapiens, RL95-2, read-out: IC50 in cell proliferation assay, cell line RL95-2 (EGFR p.A289V)) was 0.008 µM. For the same compound, the IC50 (134 cancer cell lines; Homo sapiens, RPMI-7951, read-out: IC50 in cell proliferation assay, cell line RPMI-7951 (BRAF p.V600E)) was 3.97 µM, the IC50 (134 cancer cell lines; Homo sapiens, RS4-11, read-out: IC50 in cell proliferation assay, cell line RS4;11) was 3.36 µM and the IC50 (134 cancer cell lines; Homo sapiens, Rec1, read-out: IC50 in cell proliferation assay, cell line REC-1) was 0.845 µM. The IC50 (134 cancer cell lines; Homo sapiens, SHP77, read-out: IC50 in cell proliferation assay, cell line SHP-77) was 5.08 µM, the IC50 (134 cancer cell lines; Homo sapiens, SK-BR-3, read-out: IC50 in cell proliferation assay, cell line SK-BR-3 (ERBB2 amplification)) was 0.027 µM and the IC50 (134 cancer cell lines; Homo sapiens, SK-N-AS, read-out: IC50 in cell proliferation assay, cell line SK-N-AS) was 3.08 µM. For the same compound, the IC50 (134 cancer cell lines; Homo sapiens, SK-N-FI, read-out: IC50 in cell proliferation assay, cell line SK-N-FI) was 3.36 µM, the IC50 (134 cancer cell lines; Homo sapiens, SK-N-MC, read-out: IC50 in cell proliferation assay, cell line SK-N-MC) was 2.94 µM and the IC50 (134 cancer cell lines; Homo sapiens, SK-N-SH, read-out: IC50 in cell proliferation assay, cell line SK-N-SH (ALK p.F1174L)) was 2.47 µM. It also gave an IC50 (134 cancer cell lines; Homo sapiens, SNU-5, read-out: IC50 in cell proliferation assay, cell line SNU-5 (MET amplification)) of 3.41 µM, an IC50 (134 cancer cell lines; Homo sapiens, SNU-16, read-out: IC50 in cell proliferation assay, cell line SNU-16 (FGFR2 amplification)) of 3.88 µM and an IC50 (134 cancer cell lines; Homo sapiens, SNU-C2B, read-out: IC50 in cell proliferation assay, cell line SNU-C2B (EGFR p.R165Q)) of 5.59 µM. It also gave an IC50 (134 cancer cell lines; Homo sapiens, SU-DHL-1, read-out: IC50 in cell proliferation assay, cell line SU-DHL-1 (NPM1-ALK)) of 3.51 µM, an IC50 (134 cancer cell lines; Homo sapiens, SU-DHL-6, read-out: IC50 in cell proliferation assay, cell line SU-DHL-6) of 2.55 µM and an IC50 (134 cancer cell lines; Homo sapiens, SUP-T1, read-out: IC50 in cell proliferation assay, cell line SUP-T1) of 4.54 µM. The IC50 (134 cancer cell lines; Homo sapiens, SW48, read-out: IC50 in cell proliferation assay, cell line SW48 (EGFR p.G719S)) was 0.000636 µM, the IC50 (134 cancer cell lines; Homo sapiens, SW480, read-out: IC50 in cell proliferation assay, cell line SW480) was 4.83 µM and the IC50 (134 cancer cell lines; Homo sapiens, SW626, read-out: IC50 in cell proliferation assay, cell line SW626) was 5.24 µM. For the same compound, the IC50 (134 cancer cell lines; Homo sapiens, SW780, read-out: IC50 in cell proliferation assay, cell line SW780 (FGFR3-BAIAP2L1)) was 4.61 µM, the IC50 (134 cancer cell lines; Homo sapiens, SW837, read-out: IC50 in cell proliferation assay, cell line SW837) was 6.48 µM and the IC50 (134 cancer cell lines; Homo sapiens, SW872, read-out: IC50 in cell proliferation assay, cell line SW872 (BRAF p.V600E)) was 5.03 µM. For the same compound, the IC50 (134 cancer cell lines; Homo sapiens, SW900, read-out: IC50 in cell proliferation assay, cell line SW900) was 4.74 µM, the IC50 (134 cancer cell lines; Homo sapiens, SW948, read-out: IC50 in cell proliferation assay, cell line SW948) was 4.8 µM and the IC50 (134 cancer cell lines; Homo sapiens, SW982, read-out: IC50 in cell proliferation assay, cell line SW982 (BRAF p.V600E)) was 3.94 µM. It also gave an IC50 (134 cancer cell lines; Homo sapiens, SW-620, read-out: IC50 in cell proliferation assay, cell line SW620) of 5.18 µM, an IC50 (134 cancer cell lines; Homo sapiens, T98G, read-out: IC50 in cell proliferation assay, cell line T98G) of 4.59 µM and an IC50 (134 cancer cell lines; Homo sapiens, TCC-SUP, read-out: IC50 in cell proliferation assay, cell line TCCSUP) of 3.39 µM. The IC50 (134 cancer cell lines; Homo sapiens, THP-1, read-out: IC50 in cell proliferation assay, cell line THP-1) was 3.91 µM, the IC50 (134 cancer cell lines; Homo sapiens, U2OS, read-out: IC50 in cell proliferation assay, cell line U2OS) was 3.31 µM and the IC50 (134 cancer cell lines; Homo sapiens, U-87 MG, read-out: IC50 in cell proliferation assay, cell line U-87MG ATCC) was 4.41 µM. The IC50 (134 cancer cell lines; Homo sapiens, U-118-MG, read-out: IC50 in cell proliferation assay, cell line U-118MG) was 3.63 µM, the IC50 (134 cancer cell lines; Homo sapiens, UMUC3, read-out: IC50 in cell proliferation assay, cell line UM-UC-3) was 3.19 µM and the IC50 (134 cancer cell lines; Hs766T, read-out: IC50 in cell proliferation assay, Hs 766T cell line) was 5.01 µM. For the same compound, the IC50 (134 cancer cell lines; L-82, read-out: IC50 in cell proliferation assay, L-82 cell line (NPM1-ALK)) was 1.65 µM, the IC50 (134 cancer cell lines; Rh30, read-out: IC50 in cell proliferation assay, cell line Rh30) was 3.93 µM and the IC50 (134 cancer cell lines; read-out: IC50 in cell proliferation assay, 11-18 cell line (EGFR p.L858R)) was 0.002 µM. It also gave an IC50 (134 cancer cell lines; read-out: IC50 in cell proliferation assay, Hs 852.T cell line) of 3.75 µM, an IC50 (134 cancer cell lines; read-out: IC50 in cell proliferation assay, JAR cell line) of 3.05 µM and an IC50 (134 cancer cell lines; read-out: IC50 in cell proliferation assay, cell line 5637) of 0.031 µM. For the same compound, the IC50 (134 cancer cell lines; read-out: IC50 in cell proliferation assay, cell line A-388) was 0.019 µM, the IC50 (134 cancer cell lines; read-out: IC50 in cell proliferation assay, cell line DB) was 3.6 µM and the IC50 (134 cancer cell lines; read-out: IC50 in cell proliferation assay, cell line DEL (NPM1-ALK)) was 2.04 µM. It also gave an IC50 (134 cancer cell lines; read-out: IC50 in cell proliferation assay, cell line ES-2 (BRAF p.V600E)) of 2.99 µM, an IC50 (134 cancer cell lines; read-out: IC50 in cell proliferation assay, cell line PA-1) of 2.7 µM and an IC50 (134 cancer cell lines; read-out: IC50 in cell proliferation assay, cell line PC-3) of 5.26 µM. The IC50 (134 cancer cell lines; read-out: IC50 in cell proliferation assay, cell line RD) was 2.53 µM, the IC50 (134 cancer cell lines; read-out: IC50 in cell proliferation assay, cell line RKO (BRAF p.V600E)) was 3.58 µM and the IC50 (134 cancer cell lines; read-out: IC50 in cell proliferation assay, cell line RL) was 4.15 µM. It also gave an IC50 (134 cancer cell lines; read-out: IC50 in cell proliferation assay, cell line RT-4 (FGFR3-TACC3)) of 0.014 µM, an IC50 (134 cancer cell lines; read-out: IC50 in cell proliferation assay, cell line SR (NPM1-ALK)) of 3.55 µM and an IC50 (134 cancer cell lines; read-out: IC50 in cell proliferation assay, cell line T24) of 3.02 µM. For the same compound, the IC50 (134 cancer cell lines; read-out: IC50 in cell proliferation assay, cell line TT (RET p.C634W)) was 4.83 µM, the IC50 (134 cancer cell lines; read-out: IC50 in cell proliferation assay, cell line VA-ES-BJ) was 3.55 µM and the IC50 (AP-1060 (ETV6-NTRK3)) was 3.46 µM. It also gave an inhibition at 1 µM [1] of 2.5%, an inhibition at 1 µM [2] of 5.35% and an inhibition at 1 µM [3] of 3.35%. It also gave an inhibition at 1 µM [4] of 76%, an inhibition at 1 µM [5] of 26% and an inhibition at 1 µM [6] of 1.13%. The inhibition at 1 µM [7] was -0.6%, the inhibition at 1 µM [8] was -1.66% and the inhibition at 1 µM [9] was 1.07%.
